According to publication PMC9605737, “Identification of 6ω-cyclohexyl-2-(phenylamino carbonylmethylthio)pyrimidin-4(3H)-ones targeting the ZIKV NS5 RNA dependent RNA polymerase” (Frontiers in Chemistry, 2022):

Legend:
[1] = system: ZIKV RNA; assay: qRT-PCR viral load in supernatant of ZIKV-infected Huh7 cells; format: cell-based; details: Zika virus, Huh-7, read-out: EC50, inhibition of ZIKV RNA replication
Text: (§1) In order to re-verify the inhibitory effect of 4w on ZIKV at the molecular level, we used ZIKV to infect cell lines of different origins (A549, Vero, Huh7 cells) and then treated with 4w in a concentration gradient. The change of viral load in the supernatant of cells after treatment was detected by qRT-PCR method.
(§2) Cells were infected with ZIKV SZ-WIV01 and then treated with 4w. The viral load in the supernatant was detected by Quantitative real-time polymerase chain reaction (qRT-PCR) at in different time periods after infection. Then the RNA from culture supernatant was extracted using the EasyPure ® Viral DNA/RNA Kit (TransGen Biotech, China) following the manufacturer’s instructions. Intracellular RNA extraction was according to trizol method. A one-step qRT-PCR kit RNA-direct™ Realtime PCR Master Mix (TOYOBO, Japan) and TaqMan probe were used to quantify the viral RNA produced. The primers (NS5 ZIKV 1086F: 5′-CCGCTGCCCAACACAAG-3′ and NS5 ZIKV 1086R: 3′-[…] C-5′) and probe (5′-FAM-[…]-TAMRA -3′) were used for amplification of the ZIKV NS5 region. A standard curve of the serial dilutions was used to quantify the viral RNA yield.
(§3) The 50% effective concentration (EC50) and 50% cytotoxic concentration (CC50) of the compound were calculated according to the Reed and Muench method, inhibition rate of ZIKV RNA yield- [(1-drug treatment/positive control) × 100]. […]

[2] = system: ZIKV E protein; assay: Western blot of ZIKV E protein in infected Vero cells; format: cell-based, Zika virus; details: 12.5 μM, 48 h
Text: (§4) ZIKV E protein is one of the most important structural proteins of ZIKV, which plays an important role in the correct assembly of the virus and evasion of the host’s innate immunity ([Jaimipuk et al., 2022]). We have verified that 4w has a significant inhibitory effect on ZIKV-infected cell lines from different sources at the molecular level, but it is unknown whether it has the same antiviral effect at the protein level. Therefore, in order to explore the inhibitory effect of 4w on ZIKV protein level, we added serially diluted 4w to ZIKV-infected Vero cells for 48 h, collected the total protein for WB experiments, and then detected the effect of 4w on ZIKV E and NS5 protein. At the same time, the inhibitory effect of 4w on ZIKV E protein was verified again by immunofluorescence experiment.
(§5) Vero cells were infected with ZIKV (MOI = 1) at 37°C for 2 h. Next, the different amounts of 4w were added to continue culturing for 48 h to extract the total protein in the cells. The total protein was separated in sodium dodecyl sulfate polyacrylamide gel electrophoresis (SDS-PAGE). […] The antibody signal was recorded and quantified using the Tanon-5200 Multi Imaging System.

[3] = system: ZIKV RNA; assay: qRT-PCR viral load in supernatant of ZIKV-infected A549 cells; format: cell-based; details: Zika virus, A549, read-out: EC50, inhibition of ZIKV RNA replication
Text: as §1, §2, §3

[4] = system: HCV NS5B RdRp; details: ref Shen (2015); cited from earlier work
[5] = system: ZIKV NS5 protein; assay: Western blot of ZIKV NS5 protein in infected Vero cells; format: cell-based; details: 12.5 μM, 48 h
Text: as §4, §5

[6] = system: ZIKV RNA; assay: qRT-PCR viral load in supernatant of ZIKV-infected Vero cells; format: cell-based; details: Zika virus, read-out: EC50, inhibition of ZIKV RNA replication
Text: as §1, §2, §3

[7] = MTT cytotoxicity assay in Vero cells; format: cell-based, African green monkey; details: African green monkey, triplicate, >200 = highest soluble concentration not reaching 50% cytotoxicity
Method: MTT assay was used to detect the toxicity of the compound. Cells were seeded in 96-well plates and cultured overnight. Compounds with different concentrations were added and incubated for 96 h. Then, 20 μl of 5 mg/ml MTT (Sigma-Aldrich, United States) solution was added to each well and kept at 37°C for 4 h. Subsequently, 100 μl of 12% SDS-50% DMF (Sigma-Aldrich, United States) solution was added and incubated overnight at 37°C. After the crystalline formamidine was completely dissolved, the optical density (OD) value was measured using a microplate reader (BioTek, United States) with a wavelength of 570 nm and a reference wavelength of 630 nm.
The 50% effective concentration (EC50) and 50% cytotoxic concentration (CC50) of the compound were calculated according to the Reed and Muench method, inhibition rate of ZIKV RNA yield- [(1-drug treatment/positive control) × 100]. The data and graphs were processed using GraphPad Prism8 software, expressed as mean ± standard deviation (Mean ± SD), comparison between groups using ANOVA, p < 0.05 was considered statistically significant.

[8] = system: ZIKV; assay: Plaque assay, anti-ZIKV activity in Vero cells; format: cell-based, Zika virus
Method: Initially, the novel acetylarylamine-S-DACOs 4a-z were tested for their cytotoxicity and anti-ZIKV activity in Vero cells by plaque formation according to previously detailed procedure ([Xu et al., 2017]).
Vero cells were inoculated in a 12-well plate at 3 × 10^5 cells/ml and cultured overnight, the medium was discarded and cells were washed with PBS, then the ZIKV (MOI = 0.5) was added to infect at 37°C for 2 h. The cells were washed with PBS, and then a mixture of DMEM supplemented with 4% FBS and 2% low-melting agarose (Amresco, United States) was overlaid on the cells. Next, the cells were fixed with 4% paraformaldehyde for 15 min at 5d post-infection (hpi), washed twice with PBS and stained with 0.8% crystal violet for 10 min. Finally, an enzyme-linked fluorescence spot spectrometer (CTL, United States) was used for image acquisition.

[9] = system: ZIKV; assay: Time of drug withdrawal experiment; format: cell-based, Zika virus; details: 50 μM, drug withdrawal 4–6 h after dosing, viral load after 24 h
Method: ZIKV RdRp was a important domain in the C-terminal of ZIKV NS5, and plays a crucial role in the replication and synthesis of RNA in the life cycle of ZIKV. In order to further verify that 4w activity is related to RdRp domain inhibition, we examined the effect of 4w on the replication cycle of ZIKV using four different drug treatments and time-sharing withdrawal experiments (Figure 7A).
The virus was added to the cells and adsorbed for 2 h at 4°C, then the unabsorbed virus was washed away with pre-cooled PBS, and 50 μM 4w was added at the same time. Withdraw the drug at 1, 2, 4, 6, 8, and 12 h after dosing. The cell supernatant was collected for viral load detection after the maintenance medium continued to culture for 24 h.

[10] = system: ZIKV E protein; assay: Immunofluorescence assay of ZIKV E protein in infected Vero cells; format: cell-based, Zika virus; details: 25 μM, 72 h
Text: as §4
Vero cells were seeded at 2 × 10^5 cells/ml in a 24-well plate with cell slides, and 500 μl/well was cultured overnight in a 37°C, 5% CO2 incubator. ZIKV (MOI = 1) was added to infect at 37°C for 2 h, and then discarded the virus. The cells were washed twice with PBS and then added to 500 μl of 4w diluted in concentration gradients. At the same time, virus-only as a positive control and a medium-only as negative control were set. […] Microscopic examinations were performed on a Leica DMI4000B Microsystem (Wetzlar, Germany), and an image was recorded using the system.

CCc1c(C2CCCCC2)nc(SCC(=O)Nc2cc(F)cc(F)c2)[nH]c1=O [Compound 4w, 2-{[4-cyclohexyl-5-ethyl-6-oxo-1,6-dihydropyrimidin-2-yl]thio}-N-(3,5-difluorophenyl)acetamide]
EC50 [1]: 6.76 ± 0.52 µM
inhibition of ZIKV E protein expression (WB) [2]: significantly inhibit
EC50 [3]: 5.18 ± 0.69 µM
IC50 [4]: 0.102 µM
inhibition of ZIKV NS5 protein expression (WB) [5]: significantly inhibit
EC50 [6]: 6.87 ± 1.21 µM
CC50 at 96 h [7]: > 200 µM
SI (selectivity index, CC50/EC50 ratio) [8]: >26
EC50 ([8]; Zika virus, plaque assay, independently in triplicate, read-out: EC50 (anti-ZIKV activity, plaque formation)): 7.65 ± 0.31 µM
effect of drug withdrawal on release of progeny virus [9]: significantly inhibit the release of progeny virus
inhibition of ZIKV E protein expression (immunofluorescence) [10]: completely inhibited
